In patent publication US20250282816A1, “THIOSTREPTON COMPOSITIONS AND PREPARATION THEREOF” (RS Oncology, LLC, priority 2021, published 2025):

How the values were obtained:
[1] = Antibiotics-Microbial assay, USP <81>; format: cell-based; settings: final product of the 2 kg scale cGMP process (GMP DS Lot 1); specification ≥900 IU/mg
Text: Materials and Methods. […] Identification by IR spectrum, USP <197K> • 2. Antibiotics-Microbial assay, USP <81>

[2] = tested on: ovarian cancer cell line SKOV3; assay: cell viability assay, crystal violet cell staining; format: cell-based; settings: 48 hours treatment
Method: Commercial thiostrepton (TS) starting material (TS Non-GMP) and ultrapure TS (TS GMP) were diluted to 10 mM in sterile DMSO. Lots of TS were evaluated in a cell viability assay using the ovarian cancer cell line SKOV3 purchased from ATCC. Two replicate plates containing technical duplicates were set up for screening. Cells were plated at a density of 2,500 cells/well in 96-well plates and allowed to adhere for 24 hours prior to treatment. A starting concentration of 20 μM for each TS solution was serial diluted 1:1 covering a concentration range of 20 μM to 20 nM. Cells were incubated with treatments for 48 hours prior to fixation with 3% formaldehyde and crystal violet cell staining to determine residual cells remaining (100%=no cell death, 0%=complete cell death). FIG. 4. EC50 values (the concentration required to kill 50% of cells) were determined using a variable slope least square fit non-linear regression. FIG. 5.

C=C(NC(=O)C(=C)NC(=O)c1csc(C2=N[C@@H]3c4csc(n4)[C@H]4NC(=O)c5csc(n5)[C@H]([C@](C)(O)[C@@H](C)O)NC(=O)[C@H]5CSC(=N5)/C(=C/C)NC(=O)[C@H]([C@@H](C)O)NC(=O)c5csc(n5)[C@]3(CC2)NC(=O)[C@H](C)NC(=O)C(=C)NC(=O)[C@H](C)NC(=O)[C@H]([C@@H](C)CC)N[C@@H]2C=Cc3c([C@H](C)O)cc(nc3[C@H]2O)C(=O)O[C@@H]4C)n1)C(N)=O [ultrapure TS, thiostrepton]
Antibiotics-Microbial assay [1]: 988 IU/mg
biological activity as measured by % cell death of cancer cells, compared with commercial TS ([2]; 20 μM to 20 nM, N=4 replicates (FIG. 4)): better biological activity
biological activity as measured by EC50 (the concentration required to kill 50% of cells), compared with commercial TS ([2]; variable slope non-linear regression, N=4 replicates, p<0.0001 (FIG. 5)): better biological activity
